Experimental data from US12194084B2 (priority 2019, dated 2025).

Assays:
[1] = test system: lymphocytes from MLN of Mtb-infected mice; experiment: Recall response to Mtb lipids in Mtb-infected hCD1Tg mice (IFN-γ ELISPOT); format: cell-based
DN1 T cells = format: cell-based, mouse; conditions: screen of 6 common adjuvants, CD69 on DN1 T cells
Experimental: 24 h later, the percentage of DN1 T cells expressing CD69 was determined by FACS. Data are representative of two experiments.

| Substance | T cell responses to Mtb lipid [1] | enhancement of a suboptimal dose of MA-MC (DN1 T cells) |
| --- | --- | --- |
| Glucose monomycolate [GMM] | readily detected |  |
| Sulfoglycolipid [SGL] | readily detected |  |
| cyclic-di-GMP |  | top three candidates |
| monophosphoryl lipid A [MPLA] |  | top three candidates |
